Blank lines part the entries; values can stand above or below the molecule they belong to. Square brackets hold non-standard residues; d marks the D form. Ends that are not written are not given here. Phe(4-CF3) = N[C@@H](Cc1ccc(C(F)(F)F)cc1)C(=O)O
How the values were obtained:
[1] = test system: free fatty acid receptor 2, FFA2; settings: cited from earlier work
Text: Whether NT binds to the orthosteric binding pocket of the intermediate state or occupies different conformations in distinct pockets remains to be fully answered. […] Intermediate-state binding pockets have been attributed to a sequential activation mechanism of the free fatty acid receptor 2, FFA2, by the previously considered allosteric modulator, 4-CMTB[62]. 4-CMTB binds to the orthoste ...

NTS1 = settings: cited from earlier work
Text: The ECL2 of many GPCRs forms a lid over the ligand-bound orthosteric binding pocket of the receptor via interaction with the N-terminal region or ECL3 of the receptor, which can increase the affinity of the ligand by slowing down its dissociation rate[35],[37]. Although such a formation has not been confirmed experimentally for NTS1, all structures published to date on the complex of NT with NTS1 show close contacts between the N-terminal region and the ECL2 of NTS1 (PDB: 4XEE, 6YVR, 4BUO)[21],[33],[34]. However, the structure of these parts of NTS1 in the apo-state or when complexed with smal ...

enNTS1-R213 = experiment: Ligand-observed 19F NMR / 19F STD, enNTS1-R213 complex; type: binding, rat; settings: 298 K, pH 7.4
Experimental: The peptide-receptor complex was formed by addition of a 10-fold excess of peptide to receptor. The solution was incubated on ice for one hour, followed by buffer exchange to remove free peptide in 50 mM potassium phosphate pH 7.4, 100 mM NaCl, 0.05% DDM, 50 µM EDTA, 0.02% NaN3. 100 μM of freshly formed complexes were mixed with 10 μM free receptor to ensure excess receptor. The samples were adjusted to 10% D2O, 500 μM DSS and 20 μM TFA as lock nuclei, ^1H and ^19F references, respectively.
For NMR experiments in the presence of Gαiq, enNTS1-R213 was incubated on ice with 5-fold Y11tfmF-NT8-13 over receptor for 30 min and then 5-fold Gαiq over receptor with incubation for another 30 min. […]
^19F saturation transfer difference (STD) experiments were acquired using the STDDiff pulse sequence from the Bruker library. […] These were interleaved with equivalent off-resonance spectra, where the offset was set equidistant to the monitored and saturated peaks. The intensities of the monitored peak in the presence of on-resonance saturation were normalized against the spectra collected in the absence of saturation and subtracted from the intensities in the presence of the equidistant off-resonance spectra to account for off-resonance effects. […]

enNTS1 [2] = experiment: Ligand-observed 19F NMR / 19F STD, enNTS1 complex; type: binding, rat; settings: 298 K, pH 7.4
wt-rNTS1 [3] = experiment: β-arrestin-2 recruitment BRET assay, wt-rNTS1; type: cell-based, rat; settings: HEK293T cells, β-arrestin-2-Venus, 37 °C, n = 3
Experimental: (§1) 500,000 HEK293T cells were seeded per well in a 6-well plate in complete DMEM (10% FBS, 1% L-Glutamine, 1% penicillin-streptomycin). Cells were transfected the following day with a solution of Opti-mem and lipofectamine 2000 at a quantity of 1 µL/1 µg of DNA. For β-arrestin-2 recruitment assay cells were co-transfected with 250 ng of either pcDNA 3.1 zeo-HA-FLAG-wt-rNTS1-nLuc or pcDNA 3.1 zeo-HA-FLAG-rNTS1-R213L-nLuc and with 600 ng of pcDNA human β-arrestin-2-Venus. In G protein BRET assays, cells were co-transfected with 750 ng of pCSC-rNTS1-IRES-mCherry, pCSC-rNTS1-R213L-IRES-mCherry or pCSC-enNTS1-IRES-mCherry and with 250 ng of Gαi (for enNTS1) or Gq (for rNTS1 and rNTS1-R213L) BRET biosensor. […] The plate was then incubated at 37 °C for 10 min in a PHERAstar® FSX microplate reader (BMG LABTECH). Dual luminescence of 450/535 nm was then measured for 3 min before manually adding 10 µL of 10x ligand concentration or vehicle to respective wells before completing the time course measurement. The BRET ratio was calculated as Venus emission to nLuc emission. […] Concentration–response curves were calculated by first integrating the area under the BRET ratio over time plot using the Area Under the Curve function and then plotted against ligand concentration. […]

wt-rNTS1 [4] = experiment: G protein BRET assay, wt-rNTS1; type: cell-based, rat; settings: HEK293T cells, n = 3
Experimental: as §1

enNTS1 [5] = experiment: Cell surface competition binding assay, enNTS1; parameters: species or system rat; settings: HEK293F cells, competition with 5 nM Cy5-NT8-13, 1 h, room temperature, flow cytometry, n = 4
Experimental: 100,000 HEK293F cells (Invitrogen) stably expressing receptor and the cytosolic mCherry fluorophore were suspended in complete phenol red free DMEM (10% FBS, 1% L-Glutamine, 1% penicillin-streptomycin) and were added to the relevant ligand concentrations in the presence of 5 nM Cy5-NT8-13 for enNTS1 and wt-rNTS1 or 2 nM FAM-NT8-13 for rNTS1-R213L. Cells were then gently agitated on an orbital shaker in the dark for 1 h at room temperature for ligand binding to reach a state of equilibrium. The mean fluorescence intensity of bound FAM-NT8-13 and Cy5-NT8-13 was measured with a CytoflexS (Beckman-Coulter) flow cytometer using the 525/40 and 660/20 filter, respectively. Data was then analysed using the One site – Fit Ki function on GraphPad Prism (version: 9.3.1, Graphpad Software, San Diego, CA). The data for enNTS1 and wt-NTS1 are mean of four replicates (n = 4) and the assays with rNTS1-R213L are performed in triplicates (n = 3).
Supplementary Figure 3. Functional characterization of the NT peptides used in this study. The cell-surface binding of peptides to (a) wt-rNTS1 and enNTS1 (b) rNTS1-R213L. The competition binding curves are for NT8-13 (black circles) , Y11tfmF-NT8-13 (red triangles).
Cy5-labellled NT8-13 and FAM -labelled NT8-13 was used as a fluorescent competitor for investigating the binding. […]

[6] = 19F NMR interaction with DDM micelles; type: physicochemical; settings: 298 K, Supplementary Fig. 5b
Experimental: All NMR experiments were performed on a Bruker 700 MHz Avance IIIHD spectrometer running Topspin 3.2.7 and equipped with a ^1H/^13C/^15N triple-resonance TCI cryoprobe, where the proton channel was tuned to ^19F, ~658 MHz. The 1D spectra were collected in a pulse-acquire manner at 298 K, with the carrier frequency set at −65 ppm. 512 to 2048 scans were collected per spectrum with 16 K of data points and a spectral width of 49 ppm. 2680 scans were collected for the sample of Y11tfmF-NT8-13 in complex with enNTS1 in the presence of Gαiq. The spectrum on the complex of ^19F-labelled peptides and ^19F-labelled receptor were processed in Topspin vs3.4 using, respectively, 50 Hz and 10 Hz line broadening and zero filling prior to Fourier transformation. Spectral deconvolution was performed in MNova (version: 10.0.2-15465, Mestrelab Research).

[7] = biological target: T1, wt-rNTS1 (wild-type rat neurotensin receptor 1) on HEK293F cells (rat, UniProt P20789 1-424); experiment: flow cytometry on cells; cell surface competition: 100,000 HEK293F cells stably expressing receptor, unlabelled ligand varied against 5 nM Cy5-NT8-13, 1 h at room temperature, mCherry-positive single cells, One site - Fit Ki; settings: one partner purified
T1 construct: also called wt-NTS1; source: HEK293F cells stably expressing receptor and cytosolic mCherry
T1 sequence (P20789 whole entry): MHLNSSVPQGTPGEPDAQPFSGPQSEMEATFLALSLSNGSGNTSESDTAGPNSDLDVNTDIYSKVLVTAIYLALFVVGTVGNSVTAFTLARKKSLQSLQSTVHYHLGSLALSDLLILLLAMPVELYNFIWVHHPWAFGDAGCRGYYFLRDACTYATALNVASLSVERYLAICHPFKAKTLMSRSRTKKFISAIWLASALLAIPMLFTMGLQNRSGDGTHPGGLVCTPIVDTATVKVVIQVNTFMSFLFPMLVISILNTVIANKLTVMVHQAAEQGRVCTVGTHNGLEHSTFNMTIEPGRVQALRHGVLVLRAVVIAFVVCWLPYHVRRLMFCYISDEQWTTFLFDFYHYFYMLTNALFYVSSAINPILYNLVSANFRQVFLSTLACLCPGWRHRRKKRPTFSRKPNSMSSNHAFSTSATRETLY

Molecule: CC(C)C(C(=O)Nc1nccs1)c1ccc(Cl)cc1 (centres unmarked) [4-CMTB]
binding and signalling at FFA2 [1]: binds to the orthosteric binding pocket of FFA2, where it primarily initiates downstream orthosteric signalling followed by diffusion into an allosteric pocket

Molecule: COc1cccc(OC)c1-c1cc(C(=O)N[C@@H](CC(C)C)C(=O)O)nn1-c1ccnc2cc(Cl)ccc12 [RTI-3a]
pharmacological class at NTS1 (NTS1): partial agonist

Molecule: COc1cccc(OC)c1-c1cc(C(=O)NC2(C(=O)O)C3CC4CC(C3)CC2C4)nn1-c1ccnc2cc(Cl)ccc12 (centres unmarked) [SR48692]
pharmacological class at NTS1 (NTS1): inverse agonists

Molecule: COc1cccc(OC)c1-c1cc(C(=O)NC2(C(=O)O)C3CC4CC(C3)CC2C4)nn1-c1ccc(C(=O)N(C)CCCN(C)C)cc1C(C)C (centres unmarked) [SR142948A]
pharmacological class at NTS1 (NTS1): inverse agonists

Molecule: Y11tfmF-NT8-13: truncated version of 19F-NT (RRP[Phe(4-CF3)]IL)
exchange rate constant k12 (S1 to S2) (enNTS1-R213): 0.14 s⁻¹ | exchange rate constant k21 (S2 to S1) (enNTS1-R213): 0.26 s⁻¹ | exchange rate constant from S1 to S2, k12 (enNTS1 [2]): 1.23 s⁻¹ | exchange rate constant from S2 to S1, k21 (enNTS1 [2]): 0.08 s⁻¹

Molecule: Y11tfmF-NT: fluorinated analogue of NT, Tyr11 substituted with para-trifluoromethyl-phenylalanine (ELYENKPRRPFIL; para-trifluoromethyl-phenylalanine (tfmF) at position 11; pyroglutamate (pE) at position 1 as in NT)
efficacy in β-arrestin recruitment BRET assay (wt-rNTS1 [3]): equally efficacious | activation of wt-rNTS1 (wt-rNTS1 [4]; BRET assays): can fully activate wt-rNTS1 | efficacy in G protein BRET assay (wt-rNTS1 [4]; Gq BRET biosensor, 37 °C): equally efficacious | affinity for enNTS1 (effect of CF3 moiety) (enNTS1 [5]): unaffected | effect of DDM on 19F NMR signal of the peptide [6]: not perturbed in the presence of DDM

fold reduction of affinity against NT [7]: 100 fold
B1: Y11tfmF-NT (peptide)
peptide: ELYENKPRRPFIL
modifications: para-trifluoromethyl-phenylalanine (tfmF) at position 11; pyroglutamate (pE) at position 1 as in NT
notes: in this molecule Tyr11 is replaced by tfmF (see substitutions); numbers count on: the mature neurotensin peptide; The new residue is the unnatural amino acid para-trifluoromethyl-phenylalanine, written F in the substitution row; also called 19F-NT; fluorinated analogue of NT; source: synthetic peptide (Fmoc solid phase synthesis, reverse-phase HPLC)
